Laboratory results reported in ChEMBL document CHEMBL4483862, “Open-source discovery of chemical leads for next-generation chemoprotective antimalarials” (2018).

System: Plasmodium berghei
Assay: Luciferase/luciferin-expressing antifolate-resistant parasites were used to infect a culture of HepG2 cells that were pre-incubated with compounds. Infected hepatocytes emit light due to the luciferase reaction. Assay results are presented as the percent inhibition of light emission compared to control. […]
Assay type: functional
Conditions: sporozoite; for IC90: read-out: LUCIFERASE INFECTION ASSAY - IC90

Row | Structure (SMILES) | IC90 | further results
1 | CCCCCCCCC/C(=N\O)c1ccccn1 | 11.9 µM | IC50 (HEPG2TOX_HILL_SLOPE 8.74, HEPG2TOX_R_SQUARED 0.63, PBLUC_HILL_SLOPE 40.5, PBLUC_R_SQUARED 0.34, read-out: LUCIFERASE INFECTION ASSAY - IC50): 11.3 µM
2 | O=C1Nc2ccc([N+](=O)[O-])cc2/C1=N/NC(=S)NC1CCCCC1 | 3.82 µM | IC50 (HEPG2TOX_HILL_SLOPE 8.71, HEPG2TOX_R_SQUARED 0.815, PBLUC_HILL_SLOPE 16.7, PBLUC_R_SQUARED 0.29, read-out: LUCIFERASE INFECTION ASSAY - IC50): 3.35 µM
3 | Cc1cc(C(=O)NNC(=O)c2ccc3ccccc3n2)c2cnn(Cc3cccs3)c2n1 | 9.16 µM | IC50 (HEPG2TOX_HILL_SLOPE 8.79, HEPG2TOX_R_SQUARED 0.448, PBLUC_HILL_SLOPE 5.17, PBLUC_R_SQUARED 0.697, read-out: LUCIFERASE INFECTION ASSAY - IC50): 5.99 µM
4 | Cc1cc(C(=O)CN2C(=O)C(=O)N(Cc3ccccc3)C2=O)c(C)n1-c1ccc2c(c1)OCO2 | > 10 µM | IC50 (HEPG2TOX_HILL_SLOPE 8.65, HEPG2TOX_R_SQUARED 0.666, PBLUC_HILL_SLOPE 3.13, PBLUC_R_SQUARED 0.534, read-out: LUCIFERASE INFECTION ASSAY - IC50): 6.04 µM
5 | COc1ccc(C2C3CCc4ccccc4C3=NN2CCO)cc1 (configuration not stated) | > 10.2 µM | IC50 (HEPG2TOX_HILL_SLOPE 8.7, HEPG2TOX_R_SQUARED 0.737, PBLUC_HILL_SLOPE 7.39, PBLUC_R_SQUARED 0.683, read-out: LUCIFERASE INFECTION ASSAY - IC50): > 10.2 µM
6 | Cc1cc(C(=O)CNC(=O)Nc2ccccc2)c(C)n1-c1ccc(F)c(Cl)c1 | 9.57 µM | IC50 (HEPG2TOX_HILL_SLOPE 8.63, HEPG2TOX_R_SQUARED 0.403, PBLUC_HILL_SLOPE 1.87, PBLUC_R_SQUARED 0.488, read-out: LUCIFERASE INFECTION ASSAY - IC50): 2.96 µM
7 | CC(=O)c1cccc(NC(=O)Nc2ccc3nc(-c4cccc(C(F)(F)F)c4)nn3c2)c1 | 9.17 µM | IC50 (HEPG2TOX_HILL_SLOPE 8.68, HEPG2TOX_R_SQUARED 0.208, PBLUC_HILL_SLOPE 3.77, PBLUC_R_SQUARED 0.543, read-out: LUCIFERASE INFECTION ASSAY - IC50): 5.11 µM
8 | Brc1cnc2nc(-c3ccccc3)[nH]c2c1 | 7.03 µM | IC50 (HEPG2TOX_HILL_SLOPE 8.76, HEPG2TOX_R_SQUARED 0.602, PBLUC_HILL_SLOPE 4.6, PBLUC_R_SQUARED 0.128, read-out: LUCIFERASE INFECTION ASSAY - IC50): 4.36 µM
9 | Cc1cc(N2CCN(Cc3nc(=O)c4cc(Cl)ccc4[nH]3)CC2)nc(C(C)C)n1 | > 10 µM | IC50 (HEPG2TOX_HILL_SLOPE 8.69, HEPG2TOX_R_SQUARED 0.562, PBLUC_HILL_SLOPE 3.21, PBLUC_R_SQUARED 0.576, read-out: LUCIFERASE INFECTION ASSAY - IC50): 5.79 µM
10 | C/N=c1\scc(-c2ccc3c(c2)NC(=O)CO3)n1/N=C/c1cc(Br)c(O)c(OC)c1 | 7.81 µM | IC50 (HEPG2TOX_HILL_SLOPE 8.72, HEPG2TOX_R_SQUARED 0.934, PBLUC_HILL_SLOPE 4.3, PBLUC_R_SQUARED 0.314, read-out: LUCIFERASE INFECTION ASSAY - IC50): 4.68 µM
11 | COc1cc(-c2cnc3cnc(-c4ccccc4N(C)C)cn23)ccc1O | > 9.16 µM | IC50 (HEPG2TOX_HILL_SLOPE 8.81, HEPG2TOX_R_SQUARED 0.374, PBLUC_HILL_SLOPE 9.99, PBLUC_R_SQUARED 0.0967, read-out: LUCIFERASE INFECTION ASSAY - IC50): 7.81 µM
12 | CCOc1ccc(NC(=S)N/N=C/c2cc(Cl)cc([N+](=O)[O-])c2O)cc1 | > 10 µM | IC50 (HEPG2TOX_HILL_SLOPE 8.71, HEPG2TOX_R_SQUARED 0.133, PBLUC_HILL_SLOPE 2.29, PBLUC_R_SQUARED 0.38, read-out: LUCIFERASE INFECTION ASSAY - IC50): 6.7 µM
13 | CC1Cc2ccccc2N1C(=O)c1cn(-c2ccccc2)nc1-c1ccc(F)cc1 (configuration not stated) | 9.94 µM | IC50 (HEPG2TOX_HILL_SLOPE 8.75, HEPG2TOX_R_SQUARED 0.907, PBLUC_HILL_SLOPE 3.93, PBLUC_R_SQUARED 0.478, read-out: LUCIFERASE INFECTION ASSAY - IC50): 5.68 µM
14 | CC(C)(C)NC(=S)N/N=C/c1cc(I)cc(I)c1O | 4.23 µM | IC50 (HEPG2TOX_HILL_SLOPE 8.65, HEPG2TOX_R_SQUARED 0.588, PBLUC_HILL_SLOPE 9.82, PBLUC_R_SQUARED 0.5, read-out: LUCIFERASE INFECTION ASSAY - IC50): 3.38 µM
15 | COc1ccccc1-c1cnn2ccc(Nc3ccccc3)nc12 | 2.14 µM | IC50 (HEPG2TOX_HILL_SLOPE 8.7, HEPG2TOX_R_SQUARED 0.948, PBLUC_HILL_SLOPE 3.38, PBLUC_R_SQUARED 0.62, read-out: LUCIFERASE INFECTION ASSAY - IC50): 1.12 µM
16 | Cc1ccc(-c2cc(=O)n(-c3ccc(F)cc3)[nH]2)cc1 | 11.6 µM | IC50 (HEPG2TOX_HILL_SLOPE 8.74, HEPG2TOX_R_SQUARED 0.98, PBLUC_HILL_SLOPE 2.08, PBLUC_R_SQUARED 0.732, read-out: LUCIFERASE INFECTION ASSAY - IC50): 4.04 µM

Row | Structure (SMILES) | IC90 | further results
17 | COc1cc(/C=C(\C#N)c2cccn2C)cc(OC)c1OC | > 11.1 µM | IC50 (HEPG2TOX_HILL_SLOPE 8.79, HEPG2TOX_R_SQUARED 0.806, read-out: LUCIFERASE INFECTION ASSAY - IC50): > 11.1 µM
18 | CN1CCN(c2ccc(-c3cn4c(-c5ccc6c(ccn6C)c5)cnc4cn3)cn2)CC1 | > 7.79 µM | IC50 (HEPG2TOX_HILL_SLOPE 8.77, HEPG2TOX_R_SQUARED 0.447, PBLUC_HILL_SLOPE 3.78, PBLUC_R_SQUARED 0.492, read-out: LUCIFERASE INFECTION ASSAY - IC50): 4.51 µM
19 | Cc1ccc2nc(NC(=O)c3ccc(F)cc3)c(C(=O)NC3CCCCC3)n2c1 | 4.51 µM | IC50 (HEPG2TOX_HILL_SLOPE 8.64, HEPG2TOX_R_SQUARED 0.539, PBLUC_HILL_SLOPE 8.68, PBLUC_R_SQUARED 0.013, read-out: LUCIFERASE INFECTION ASSAY - IC50): 3.5 µM
20 | CCN1/C(=C\C(=O)c2ccccc2Oc2ccccc2)C(C)(C)c2c1ccc1ccccc21 | 8.43 µM | IC50 (HEPG2TOX_HILL_SLOPE 8.78, HEPG2TOX_R_SQUARED 0.227, PBLUC_HILL_SLOPE 3.21, PBLUC_R_SQUARED 0.612, read-out: LUCIFERASE INFECTION ASSAY - IC50): 4.25 µM
21 | O=C(NCCO)c1cccc(-c2cn3c(-c4ccc(Cl)cc4)cnc3cn2)c1 | 3.17 µM | IC50 (HEPG2TOX_HILL_SLOPE 8.8, HEPG2TOX_R_SQUARED 0.456, PBLUC_HILL_SLOPE 3.73, PBLUC_R_SQUARED 0.895, read-out: LUCIFERASE INFECTION ASSAY - IC50): 1.76 µM
22 | COc1c(Br)cc([N+](=O)[O-])c(OC)c1C(=O)NC(=O)Nc1cc(C(F)(F)F)cc(C(F)(F)F)c1 | 5.15 µM | IC50 (HEPG2TOX_HILL_SLOPE 8.68, HEPG2TOX_R_SQUARED 0.501, PBLUC_HILL_SLOPE 19.7, PBLUC_R_SQUARED 0.399, read-out: LUCIFERASE INFECTION ASSAY - IC50): 4.61 µM
23 | CN(Cc1ccc(Cl)s1)C(=O)Cn1ncc(Br)c(Br)c1=O | 8.7 µM | IC50 (HEPG2TOX_HILL_SLOPE 8.71, HEPG2TOX_R_SQUARED 0.0596, PBLUC_HILL_SLOPE 2.5, PBLUC_R_SQUARED 0.642, read-out: LUCIFERASE INFECTION ASSAY - IC50): 3.61 µM
24 | CCc1cc(=O)n2nc(Cc3ccccc3)c(-c3ccccc3)c2[nH]1 | > 10 µM | IC50 (HEPG2TOX_HILL_SLOPE 8.68, HEPG2TOX_R_SQUARED 0.27, PBLUC_HILL_SLOPE 11.4, PBLUC_R_SQUARED 0.149, read-out: LUCIFERASE INFECTION ASSAY - IC50): 8.75 µM
25 | C=CCn1c(COc2ccc(C(C)(C)C)cc2)nnc1SCC(=O)N(C)C1CCCCC1 | > 10 µM | IC50 (HEPG2TOX_HILL_SLOPE 8.72, HEPG2TOX_R_SQUARED 0.783, PBLUC_HILL_SLOPE 29.5, PBLUC_R_SQUARED 0.113, read-out: LUCIFERASE INFECTION ASSAY - IC50): 9.61 µM
26 | Cc1cc2oc(=O)cc(COC(=O)c3ccccc3NCCO)c2cc1C | 5.07 µM | IC50 (HEPG2TOX_HILL_SLOPE 8.75, HEPG2TOX_R_SQUARED 0.762, PBLUC_HILL_SLOPE 95.5, PBLUC_R_SQUARED 0.164, read-out: LUCIFERASE INFECTION ASSAY - IC50): 4.95 µM
27 | C=CCn1c(SCc2ccccn2)nc2sccc2c1=O | > 10 µM | IC50 (HEPG2TOX_HILL_SLOPE 8.76, HEPG2TOX_R_SQUARED 0.722, PBLUC_HILL_SLOPE 2.66, PBLUC_R_SQUARED 0.469, read-out: LUCIFERASE INFECTION ASSAY - IC50): 8.34 µM
28 | OCCCNc1nn2c(-c3cccc(Cl)c3)cnc2s1 | > 10.7 µM | IC50 (HEPG2TOX_HILL_SLOPE 8.79, HEPG2TOX_R_SQUARED 0.819, PBLUC_HILL_SLOPE 13.4, PBLUC_R_SQUARED 0.184, read-out: LUCIFERASE INFECTION ASSAY - IC50): 9.8 µM
29 | CC(O)c1ccc(-c2ccccc2NC(=O)c2ccccn2)s1 (configuration not stated) | > 10 µM | IC50 (HEPG2TOX_HILL_SLOPE 8.65, HEPG2TOX_R_SQUARED 0.867, read-out: LUCIFERASE INFECTION ASSAY - IC50): > 10 µM
30 | COc1cc(/C=C2\SC(=O)N(CCNC(=O)c3cnccn3)C2=O)ccc1OC(F)F | > 10 µM | IC50 (HEPG2TOX_HILL_SLOPE 8.8, HEPG2TOX_R_SQUARED 0.871, PBLUC_HILL_SLOPE 1.47, PBLUC_R_SQUARED 0.589, read-out: LUCIFERASE INFECTION ASSAY - IC50): > 10 µM
31 | Fc1ccc(N/N=C/Cc2nnnn2-c2ccccc2)cc1 | > 11.1 µM | IC50 (HEPG2TOX_HILL_SLOPE 8.77, HEPG2TOX_R_SQUARED 0.625, PBLUC_HILL_SLOPE 4.51, PBLUC_R_SQUARED 0.347, read-out: LUCIFERASE INFECTION ASSAY - IC50): 7.9 µM
